Data on three compounds can be found in patent US7935530B2, “Polyamides with tail structures capable of binding DNA” (California Institute of Technology, priority 2006, dated 2011).

The subject of data set [1] is two 5′-WGWCW-3′ sites approximately 35 basepairs 3′ of the HRE. Nature of the data set: Quantitative DNase I footprint titration on pGL2-VEGF-Luc, sites 3′ of the HRE. The data set is classed as binding. On the procedure: (§1) Quantitative DNase I footprint titration experiments were used to measure the binding affinities of polyamides 11.1, 11.2, 11.3, and echinomycin on 5′ ^32P-labeled fragments of pGL2-VEGF-Luc and pCSJ-FLT1 containing promoter sequences containing the HREs of VEGF and FLT1, respectively. Quantitative DNase I footprint titration experiments were conducted as reported previously (56).

The subject of the next data set is HeLa cells. Nature of the data set: HeLa cell growth, cells counted with a hemacytometer. The class given is cell-based, human. The note with it: 1 μM, counted at 24 hour intervals. How it is done:
FIG. 10: HeLa cell growth in the presence of polyamides 11, 12, 23, and 24 at 1 μM as a function of time. Cells were counted at 24 hour intervals using a hemacytometer.

Data set [2] relates to 5′-AGACA-3′ site 16 basepairs 5′ to the FLT1 HRE. Nature of the data set: Quantitative DNase I footprint titration on pCSJ-FLT1, site 5′ to the FLT1 HRE. The data set is classed as binding. On the procedure:
as §1

The next data set has as its system U251 cells. Nature of the data set: Microarray analysis of gene expression (Affymetrix Human Genome U133 Plus 2.0), DFO-induced U251 cells. The data set is classed as cell-based. The note with it: for Number of transcripts affected (p ≦ 0.01): down-regulated (fold change ≦ −2.0) / Number of transcripts affected (p ≦ 0.01): down-regulated (fold change ≦ −4.0) / Number of transcripts affected (p ≦ 0.01): up-regulatd (fold change ≧ 4.0) / Number of transcripts affected (p ≦ 0.01): up-regulated (fold change ≧ 2.0): DFO +; for Number of transcripts whose expression is affected by more than 2-fold (p≦0.01): polyamide 1 μM, echinomycin 100 nM, normalized to DFO-treated controls. How it is done: One potential limitation to the use of hairpin-polyamides for gene regulation is binding site size and specificity for match versus mismatch sites, which may result in prohibitively large numbers of affected genes. To examine this, the global effects of polyamide treatment on hypoxia-induced gene expression were measured using Affymetrix Human Genome U133 Plus 2.0 Arrays containing oligonucleotide sequences representing more than 50,000 transcripts. To establish a benchmark for comparison, the effects of HIF-1α siRNA and echinomycin were also measured. Experiments were conducted in triplicate, and gene expression levels normalized to DFO-treated controls. Cells not treated with DFO were normalized to DFO-treated controls.
U251 cells were plated in 12-well plates at a density of 40-60×10^3 cells per well. Media, time course, DFO, polyamide, echinomycin, and siRNA treatments were as described above. RNA was isolated as previously described. Further sample preparation for microarray experiments was carried out at the Millard and Muriel Jacobs Gene Expression Facility at Caltech. Labeled mRNA was hybridized to Affymetrix Human 133 arrays according to established protocols. Gene expression was analyzed using Resolver (Rosetta Biosoftware, Seattle).

The test system of data set [3] is 5′-ATACGT-3′ sequence within the HRE of the VEGF promoter. The note with it: values quoted from earlier publications (refs 16, 20); cited from earlier work.

For `CN(CCCNC(=O)c1cccc(C(=O)O)c1)CCCNC(=O)c1cc(NC(=O)c2cc(NC(=O)c3cc(NC(=O)c4nc(NC(=O)[C@H](N)CCNC(=O)c5cc(NC(=O)c6cc(NC(=O)c7nc(NC(=O)c8nccn8C)cn7C)cn6C)cn5C)cn4C)cn3C)cn2C)cn1C` [Polyamide 23], the “Ka approximately 35 basepairs 3′ of the HRE, most likely two 5′-WGWCW-3′ sites” value in data set [1] was 7.6 (±1.0)×10^8 M^−1. In addition, the HeLa cell growth result in the data set with HeLa cells is “not inhibited”. Also, the “Ka at a 5′-AGACA-3′ site 16 basepairs 5′ to the FLT1 HRE” value in data set [2] is recorded as 2.7 (±0.4)×10^9 M^−1.
For `CS[C@H]1SC[C@H]2C(=O)N(C)[C@@H](C(C)C)C(=O)OC[C@@H](NC(=O)c3cnc4ccccc4n3)C(=O)N[C@@H](C)C(=O)N(C)[C@@H]1C(=O)N(C)[C@@H](C(C)C)C(=O)OC[C@@H](NC(=O)c1cnc3ccccc3n1)C(=O)N[C@@H](C)C(=O)N2C` [echinomycin, reference compound], in the data set on U251 cells, the “Number of transcripts affected (p ≦ 0.01): down-regulated (fold change ≦ −2.0)” value was 7,426, the “Number of transcripts affected (p ≦ 0.01): down-regulated (fold change ≦ −4.0)” value was 4,133, the “Number of transcripts affected (p ≦ 0.01): up-regulatd (fold change ≧ 4.0)” value came out at 413 and the “Number of transcripts affected (p ≦ 0.01): up-regulated (fold change ≧ 2.0)” value is 3,480. For the same compound, in the data set on U251 cells (DFO-induced U251), the “Number of the 31 previously identified direct HIF-1 target transcripts (induced at least 1.5-fold by DFO) down-regulated / inhibited” value is 31, the “Number of the 297 transcripts induced by DFO at least 4-fold that are inhibited by ≧2-fold (p≦0.01)” value amounted to 263 and the “Number of transcripts whose expression is affected by more than 2-fold (p≦0.01)” value is given as 10,906.
For `CN(CCCNC(=O)c1cccc(C(=O)O)c1)CCCNC(=O)c1cc(NC(=O)c2cc(NC(=O)c3nc(NC(=O)c4cc(NC(=O)[C@H](N)CCNC(=O)c5nc(NC(=O)c6cc(NC(=O)c7cc(NC(=O)c8sccc8Cl)cn7C)cn6C)cn5C)cn4C)cn3C)cn2C)cn1C` [Polyamide 11], in the data set with U251 cells, the “Number of transcripts affected (p ≦ 0.01): down-regulated (fold change ≦ −2.0)” value is reported as 1,575, the “Number of transcripts affected (p ≦ 0.01): down-regulated (fold change ≦ −4.0)” value is recorded as 336, the “Number of transcripts affected (p ≦ 0.01): up-regulatd (fold change ≧ 4.0)” value amounted to 57 and the “Number of transcripts affected (p ≦ 0.01): up-regulated (fold change ≧ 2.0)” value came to 709. Moreover, in the data set with U251 cells (DFO-induced U251), the “Number of the 31 previously identified direct HIF-1 target transcripts (induced at least 1.5-fold by DFO) down-regulated / inhibited” value was 14, the “Number of the 297 transcripts induced by DFO at least 4-fold that are inhibited by ≧2-fold (p≦0.01)” value worked out at 69, the “Share of the 297 transcripts induced by DFO that were inhibited” value is listed as “Approximately 23%” and the “Number of transcripts whose expression is affected by more than 2-fold (p≦0.01)” value is reported as 2,284. In addition, in the data set on U251 cells (U251 microarray), the “Affected transcripts (2-fold, p≦0.01) after eliminating all transcripts affected by DFO alone (1.5-fold, p≦0.01)” value is on record as 1,626 and the “Share of interrogated / assayed transcripts affected” value is given as “less than 5%”. Further, the “Ka at the VEGF HRE, previously found” value in data set [3] is recorded as 2.6 (±0.4)×10^10 M^−1. Further, in the data set on HeLa cells, the HeLa cell growth result is “not inhibited”.
